Data: patent US12624057B2, “Bisphosphonate quinolone conjugates and uses thereof” (BIOVINC, LLC, priority 2016, dated 2026)
Values after ≈ are worked out from the molar mass of the structure shown.

Tests used:
[1] = 24 h
Description: Next, solutions were left for 24 h/37° C./shaking. After incubation, absorbance was measured once again. To assess for degradation of conjugate, values of absorbance taken at 0 hr and 24 hrs were compared.

[2] = In vivo tolerability during the rat peri-implant osteomyelitis studies; set-up: species or system Sprague-Dawley rats; conditions: intraperitoneal
Source text: To determine appropriate dosing concentrations, we calculated approximate initial doses for the conjugate based on previous studies and pharmacokinetic data using similar target and release strategies and also rodents (Houghton, et al., Linking bisphosphonates to the free amino groups in fluoroquinolones: preparation of osteotropic prodrugs for the prevention of osteomyelitis. J Med Chem 2008; 51:6955-69; Morioka, et al., Design, synthesis, and biological evaluation of novel estradiol-bisphosphonate conjugates as bone-specific estrogens. Bioorg Med Chem 2010; 18:1143-8). We expected that increasing doses of 0.1, 1 and 10 mg/kg BP-ciprofloxacin molar equivalents will allow us to determine antimicrobial activity in 2 test animals per group based on sample size estimations and previous experience with the animal model (Freire, et al, Development of animal model for Aggregatibacter actinomycetemcomitans biofilm-mediated oral osteolytic infection: a preliminary study. J Periodontol 2011; 82:778-89). Animals were dosed via intraperitoneal injection under general anesthesia, and all compounds were constituted in sterile physiological injectable saline at appropriate pH. One week after pharmacotherapy, all animals were sacrificed and resection of peri-implant tissues was performed, and tissues were immediately homogenized and processed for quantitative assessment of microbial load. Animals were monitored throughout the study period for local or systemic adverse effects of pharmacotherapy.
To determine appropriate dosing concentrations, approximate initial doses were calculated for the conjugate based on previous studies and pharmacokinetic data using similar target and release strategies also in rodents.^13, 26 Increasing doses of 0.1, 1 and 10 mg/kg molar equivalents of 6 can allow for determination of antimicrobial activity in 2 test animals per group based on sample size estimations and previous experience with the animal model.^32 Animals were dosed via intraperitoneal injection under general anesthesia, and all compounds were constituted in sterile physiological injectable saline at appropriate pH.

[3] = tested on: Aggregatibacter actinomycetemcomitans (Aa; wild-type rough strain D7S-1; serotype a); test: Disc diffusion inhibition zone assay on Aa; type: cell-based
Source text: (§1) Since this BP-ciprofloxacin conjugate is novel and has not been tested in vivo, we performed an initial safety and efficacy study in an animal model of peri-implant osteomyelitis. This model is a unique in-house jawbone peri-implant osteomyelitis model that was developed specifically for translational value to study biofilm-mediated disease and host response in vivo (Freire, et al, Development of animal model for Aggregatibacter actinomycetemcomitans biofilm-mediated oral osteolytic infection: a preliminary study. J Periodontol 2011; 82:778-89). […] After biofilms are established on the implants in vitro, they are surgically transferred to the jawbone of each rat. Animals are anesthetized, the cheeks are retracted and a transmucosal osteotomy is performed so implants can be manually inserted into the osteotomy and secured. Two biofilm-inoculated implants are placed in each rat (n=12 rats and 24 implants) in the palatal bone bilaterally.
Next, inhibition zones were recorded using a ruler.
After biofilms were established on the implants in vitro, they were surgically transferred to the jawbone of each rat. For surgery, animals were anesthetized with 4% isoflurane inhalant initially followed by intraperitoneal injection of ketamine (80-90 mg/kg) plus xylazine (5-10 mg/kg). Then local anesthesia was given via infiltration injection of bupivicaine 0.25% at the surgical site. […]

[4] = tested on: Aggregatibacter actinomycetemcomitans (Aa; wild-type rough strain D7S-1; serotype a); test: MIC assay on Aa; type: cell-based
Source text: as §1
Subsequently, the plate was incubated for 24 h/37° C. in a shaker to obtain optimal conditions for microbial growth and to prevent bacteria from forming biofilms. After incubation, the absorbance was measured once again. The following control samples were established: negative control sample one: sterile medium without microbes; negative control sample two: sterile medium without microbes implemented with DMSO (dimethyl sulfoxide, Sigma-Aldritch) to final concentration of 1% (v/v); positive control sample one: medium+microbes with no compound tested; positive control sample two: medium+microbes with no compound tested but implemented with DMSO to final concentration of 1% (v/v). […] To assess relative number of cells, the following calculations were performed. […] Next, the relative number of cells subjected to incubation with tested compounds were counted as follows: […].
After biofilms were established on the implants in vitro, they were surgically transferred to the jawbone of each rat. […]

Compound | stability in trypticase soy broth microbiological media [1] | tolerability / adverse events ([2]; first animal experiment, listed as BCC) | tolerability / adverse events ([2]; first animal experiment, listed as BP-ciprofloxacin) | tolerability / adverse events ([2]; second animal experiment) | tolerability / adverse events ([2]; second animal experiment, listed as BCC) | disc diffusion inhibition zone diameters [3] [mm] | MIC90 ([4]; Example 1) [µg/mL] | MIC90 ([4]; Example 5) [µg/mL] | MIC90 ([4]; Example 6) [µg/mL]
O=C(O)c1cn(C2CC2)c2cc(N3CCN(C(=O)Oc4ccc(CC(P(=O)(O)O)P(=O)(O)O)cc4)CC3)c(F)cc2c1=O [Compound 6, 1-cyclopropyl-7-(4-((4-(2,2-diphosphonoethyl)phenoxy)carbonyl)piperazin-1-yl)-6-fluoro-4-oxo-1,4-dihydroquinoline-3-carboxylic acid] | no degradation is observed after 24 hrs | no potential systemic toxicity or adverse effects | safety and efficacy was demonstrated in vivo | no signs of gross tolerability issues during therapy | tolerated treatment and pharmacotherapy well with no adverse events | – | – | – | –
O=C(O)c1cn(C2CC2)c2cc(N3CCNCC3)c(F)cc2c1=O [ciprofloxacin, reference compound] | – | – | – | – | – | > 40 | 2 (≈ 6.04 µM) | 2 (≈ 6.04 µM) | 2000 (≈ 6040 µM)
